Values of other authors in patent publication US20040112375A1, “Predicting outcome of hyperbaric oxygen therapy treatment with nitric oxide bioavailability” (priority 2002, published 2004).

Row | Compound | fall of plasma isoprostane levels (diabetic men, 600 mg twice daily for seven days) [%] | effect on isoprostane levels in biological fluids (in vivo)
1 | 2-(2,3-dihydro-5-acetoxy-4,6,7-trimethylbenzofuranyl) acetic acid [raxofelast] | 50 | –
2 | Cc1c(C)c2c(c(C)c1O)CC[C@@](C)(CCC[C@H](C)CCC[C@H](C)CCCC(C)C)O2 [alpha tocopherol] | – | reduce such isoprostane levels
